Earlier results in patent publication US20240158375A1, “COMPOUNDS AND METHODS FOR THE TREATMENT OF OCULAR DISORDERS” (Azura Ophthalmics Ltd., priority 2020, published 2024).

How the values were obtained:
integrin α4 = integrin α4 (Homo sapiens, UniProt P05556+P13612); details: Ravensberg et al, Allergy (2006) 61, 1097-1103
murine DS model = details: Invest. Ophthalmol. Vis. Sci. (2015) 56(10), 5888-5895

Chain of integrin α4 (P13612 34-1032, species assumed): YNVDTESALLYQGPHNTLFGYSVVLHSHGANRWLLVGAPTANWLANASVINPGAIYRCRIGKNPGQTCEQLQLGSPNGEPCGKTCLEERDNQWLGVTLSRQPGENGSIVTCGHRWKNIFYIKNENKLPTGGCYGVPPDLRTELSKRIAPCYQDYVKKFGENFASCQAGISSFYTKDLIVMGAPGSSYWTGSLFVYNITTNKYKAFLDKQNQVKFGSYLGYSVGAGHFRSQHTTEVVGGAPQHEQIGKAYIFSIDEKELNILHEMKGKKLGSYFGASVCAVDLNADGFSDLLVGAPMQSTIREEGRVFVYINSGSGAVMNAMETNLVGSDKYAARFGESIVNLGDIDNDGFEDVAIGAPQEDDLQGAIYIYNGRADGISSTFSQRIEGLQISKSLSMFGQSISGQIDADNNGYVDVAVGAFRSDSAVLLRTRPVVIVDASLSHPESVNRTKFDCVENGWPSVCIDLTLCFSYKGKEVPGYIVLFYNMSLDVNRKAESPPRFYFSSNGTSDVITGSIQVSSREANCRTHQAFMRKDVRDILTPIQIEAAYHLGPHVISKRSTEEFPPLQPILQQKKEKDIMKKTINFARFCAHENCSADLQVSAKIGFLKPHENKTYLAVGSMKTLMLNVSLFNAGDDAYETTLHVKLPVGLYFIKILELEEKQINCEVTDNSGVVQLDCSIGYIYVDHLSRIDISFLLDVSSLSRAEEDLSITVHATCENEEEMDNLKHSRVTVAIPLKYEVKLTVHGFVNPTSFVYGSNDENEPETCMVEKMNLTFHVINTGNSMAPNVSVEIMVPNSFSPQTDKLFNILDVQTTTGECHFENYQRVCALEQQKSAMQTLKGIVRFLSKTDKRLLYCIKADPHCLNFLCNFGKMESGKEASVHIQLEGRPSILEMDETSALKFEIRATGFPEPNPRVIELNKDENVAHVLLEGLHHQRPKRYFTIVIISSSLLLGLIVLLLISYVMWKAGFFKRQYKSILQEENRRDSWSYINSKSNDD
Chain of integrin α4 (P05556 21-798, species assumed): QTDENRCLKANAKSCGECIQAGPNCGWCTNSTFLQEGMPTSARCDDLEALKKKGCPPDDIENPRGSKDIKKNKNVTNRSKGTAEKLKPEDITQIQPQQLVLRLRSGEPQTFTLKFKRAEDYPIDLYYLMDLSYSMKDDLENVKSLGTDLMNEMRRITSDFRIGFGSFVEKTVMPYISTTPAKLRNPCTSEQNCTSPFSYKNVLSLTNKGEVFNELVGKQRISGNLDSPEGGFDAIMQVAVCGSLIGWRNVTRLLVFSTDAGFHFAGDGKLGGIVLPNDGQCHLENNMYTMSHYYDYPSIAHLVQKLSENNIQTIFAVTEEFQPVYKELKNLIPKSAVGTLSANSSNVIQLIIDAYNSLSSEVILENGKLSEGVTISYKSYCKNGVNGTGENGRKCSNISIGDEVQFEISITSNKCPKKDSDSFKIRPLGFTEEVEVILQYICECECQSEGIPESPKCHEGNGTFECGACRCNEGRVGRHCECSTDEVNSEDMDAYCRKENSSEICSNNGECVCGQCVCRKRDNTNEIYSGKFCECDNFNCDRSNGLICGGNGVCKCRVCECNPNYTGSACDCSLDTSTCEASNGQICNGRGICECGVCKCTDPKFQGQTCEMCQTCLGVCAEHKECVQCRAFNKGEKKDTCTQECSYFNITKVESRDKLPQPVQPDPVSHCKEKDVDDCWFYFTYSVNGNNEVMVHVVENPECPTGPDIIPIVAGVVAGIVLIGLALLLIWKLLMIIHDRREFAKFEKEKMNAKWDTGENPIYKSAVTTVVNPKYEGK

integrin α4 antagonist activity (integrin α4): potent integrin a4 antagonist
SMILES: Cc1ccccc1OCC(=O)N[C@@H](CC(C)C)C(=O)N[C@@H](Cc1ccc(OC(=O)N2CCC(C(N)=O)CC2)cc1)C(=O)O [(S)-3-(4-((4-carbamoylpiperidine-1-carbonyl)oxy)phenyl)-2-((S)-4-methyl-2-(2-(o-tolyloxy)acetamido)pentanamido)propanoic acid]
objective signs of dry eye (murine DS model): improvements in objective signs of dry eye
